pIC50: −log10 of the molar value. “Also recorded” adds a separate entry of the source.
How the values were obtained:
[1] = tested on: lung adenocarcinoma (LUAD) cell lines (H2030-BrM3, LKR-13); experiment: Cellular proliferation assay (IncuCyte cell confluence), PEITC vs Mito-PEITC; format: cell-based; details: Homo sapiens, real-time cell confluence, both LUAD cell lines tested, read-out: IC50, inhibition of proliferation
H2030-BrM3 cells [2] = experiment: Orthotopic model of lung adenocarcinoma; format: in vivo, nude mice; details: 4 μmol/kg, oral gavage 5 days/week for 3 weeks
Procedure: An orthotopic model of lung adenocarcinoma cells (H2030-BrM3 cells) in athymic nude mice was used. Nude mice (5 weeks old) were anesthetized with isoflurane and placed in the right lateral decubitus position. A total of 1×10^6 H2030-BrM3 cells in […] of growth factor reduced Matrigel in 50 μL of RPMI1640 medium were injected into the left lung through the left rib cage. […] Tumor growth and metastases were monitored over time by bioluminescence (after injection of D-luciferin, 150 μg/g) using Lumina IVIS 100 imager (Perkin Elmer, Waltham, MA). Mice were euthanized on day 28.
A study using an orthotopic model of lung adenocarcinoma in nude mice was conducted. H2030-BrM3 cells were injected into the lung. […] PEITC was not effective, as expected, because the applied dose (4 μmol/kg) is below the levels typically used in xenograft studies (Zhang, Q., et al., Mol Carcinog, 2020. 59(6): p. 590-603).

[3] = tested on: B(a)P-induced lung tumors; experiment: B(a)P-induced lung tumorigenesis, post-initiation model; format: in vivo, A/J mice; details: 100 μmol/kg, 5 days/week, 20 weeks
[4] = in vivo; cited from earlier work
H2030-BrM3 cells [5] = experiment: Lung cancer brain metastasis model (left ventricle injection); format: in vivo, NOD/SCID mice; details: PEITC at 25-fold higher dose (printed 100 mol/kg), oral gavage
Procedure: Mice were imaged for luciferase expression as a marker of tumor growth, using an IVIS 100 imaging system, over five weeks after cell injection. Regions of interest were defined manually, and LivingImage and Igor software was used to determine total photon flux.
For the brain metastasis studies, female NOD/SCID mice (age 5 weeks) were used. H2030-BrM3 cells (2×10^5) were suspended in PBS (0.1 mL) and injected into the left ventricle under ultrasound guidance (ECHO 707, GE, Milwaukee, WI). […] Mice were treated by oral gavage 5 days per week and metastases were monitored periodically by bioluminescence. Mice were euthanized at day 28 after the arterial injection of tumor cells.

[6] = tested on: lung tumorigenesis induced by benzo(a)pyrene; details: in vivo; cited from earlier work
[7] = rat, in vivo; cited from earlier work
[8] = human, in vivo; cited from earlier work
VC-induced lung tumors = experiment: VC-induced lung tumorigenesis study; format: in vivo, A/J mice; details: 100 μmol/kg, oral gavage 5 days/week for 20 weeks
Procedure: Six-week-old female A/J mice were injected with VC (single i.p. dose, 16 mg/kg). […] Treatments were administered by oral gavage five times per week. After 18 weeks of treatment, the mice were euthanized. […] The rest of lungs were evaluated under a dissecting microscope to obtain the surface tumor count and individual tumor diameter. Tumor volume was calculated based on the formula V=4πr(3)/3. Tumor load (the total tumor volume in each mouse) was calculated from the sum of all tumors.

S=C=NCCc1ccccc1 [PEITC, phenethyl isothiocyanate]
pIC50 [1]: 4.92
effect on orthotopic lung tumor growth (H2030-BrM3 cells [2]): not effective
B(a)P-induced lung tumor development [3]: ineffective
blood-brain barrier passage [4]: crosses the blood-brain barrier
plasma protein binding [4]: high
effect on lung cancer brain metastasis (H2030-BrM3 cells [5]): ineffective; also recorded: does not inhibit brain metastasis
efficacy against lung tumorigenesis induced by benzo(a)pyrene [6]: not effective
toxicity for female rats [7]: extremely low toxicity
safety in clinical trial [8]: safe
VC-induced lung tumor development (VC-induced lung tumors): ineffective

Source: patent publication US20260248924A1, “MITOCHONDRIA-TARGETED AGENTS FOR DISEASE PREVENTION AND TREATMENT” (THE METHODIST HOSPITAL, priority 2023, published 2026)
